According to patent US9951115B2, “CGRP agonist peptides” (priority 2013, dated 2018):
Bridge positions count the residues as written; N and C are the ends. Peptide text beside a SMILES is read from it.

Experiments:
[1] = system: Sprague Dawley rats, food intake; assay: Four-day food intake study; format: in vivo, rat; conditions: male Sprague Dawley rats on 60% kcal fat diet, 150 μg/kg intraperitoneal once daily for four days, food intake at 2, 4, 6, 8 hours post dose
Procedure: Food Intake Study. The effect of a CGRP agonist, in accordance with the present invention, on food intake over time both within and across several days of treatment was evaluated. Study was performed by Explora BioLabs, San Diego, Calif. and animals treated in accordance with its IACUC standards.
On Day 0, 12 animals were randomized into two groups, Test and Control, to obtain similar body weight averages between groups. Animals were dosed via a single intraperitoneal injection, with either ACX017 (SEQ. ID NO:1) (Test group) or vehicle (Control group) each day, for four days. On each day, dosing was performed in the hour prior to the end of the light phase. ACX017 was dosed at 150 μg/kg in a 10% DMSO aqueous solution. Both ACX017 and vehicle were delivered as 1 mL/kg doses.
Food consumption was measured pre-dose and at 2, 4, 6 and 8 hours post dose. Food intake was measured by weighing food hoppers on Days 1, 2, 3 and four in the hour before end of the light phase and at 2, 4, 6 and 8 hours post dosing.
Average food intake for each of the Test and Control groups at each time point post dosing was determined. Cumulative food intake for each group over the entire test period (8 hours) is provided in graph form in FIGS. 1-4 for each of Days 1-4, respectively.

[2] = target: T1, CALCRL:RAMP3 (adrenomedullin 2 (AM2) receptor) (Homo sapiens, UniProt O60896+Q16602); assay: CALCRL:RAMP3 CRE-bla Freestyle 293F agonist screen (adrenomedullin 2 receptor); format: cell-based; conditions: CALCRL:RAMP3-CRE-bla Freestyle 293F cells, 5 hours incubation, FIG. 2
T1 construct: host or cells: Freestyle 293F (CRE-bla reporter line)
Procedure: Cell-based GPCR Profiling Assays. A representative CGRP agonist peptide according to the present invention, ACX017 (SEQ ID NO:1), was profiled against G-Protein Coupled Receptors (GPCRs) in cell-based assays to determine its agonist activity and dose response. Assays were performed using the SelectScreen® Cell-based GPCR Profiling Services by Life Technologies, Carlsbad, Calif.
CALCRL:RAMP3—CRE-bla Freestyle 293F—Agonist Screen (Adrenomedullin 2 Receptor)
CALCRL:RAMP3-CRE-bla Freestyle 293F cells were thawed and resuspended in Assay Media (DMEM, 10% dialyzed FBS, 25 mM HEPES pH 7.3, 0.1 mM NEAA, 100 U/mL/100 μg/mL Pen/Strep) to a concentration of 312,500 cells/mL. 32 μL of cell suspension (10,000 cells) was added to each well of a 384-well Poly-D-Lysine assay plate. Cells in Assay Media were incubated for 16-24 hours in the plate at 37° C./5% CO2 in a humidified incubator. 4 μL of a 10× serial dilution of Adrenomedullin or ACX017 were added to appropriate wells of the plate. […] The plate was read on a fluorescence plate reader. […]
Cell-free Control. […] It was used to determine the background fluorescence for both coumarin and fluorescein wavelengths. […]
Known Agonist. A known agonist titration was run on every plate for each cell-line to ensure the cell line was activated within an expected EC50/IC50 range as previously determined.

T1 sequence (Q16602 23-461): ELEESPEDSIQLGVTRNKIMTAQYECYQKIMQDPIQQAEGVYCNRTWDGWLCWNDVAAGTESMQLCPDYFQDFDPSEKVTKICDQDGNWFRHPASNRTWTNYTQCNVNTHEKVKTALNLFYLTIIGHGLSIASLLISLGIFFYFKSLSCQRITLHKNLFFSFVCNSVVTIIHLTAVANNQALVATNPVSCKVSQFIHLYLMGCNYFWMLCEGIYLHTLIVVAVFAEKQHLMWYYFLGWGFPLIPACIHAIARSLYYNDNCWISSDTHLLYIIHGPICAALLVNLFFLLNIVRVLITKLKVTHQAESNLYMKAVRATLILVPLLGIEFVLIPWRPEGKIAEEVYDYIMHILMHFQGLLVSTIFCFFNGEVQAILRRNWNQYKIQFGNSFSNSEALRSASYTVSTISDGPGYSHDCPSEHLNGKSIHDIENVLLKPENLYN
T1 sequence (O60896 24-148): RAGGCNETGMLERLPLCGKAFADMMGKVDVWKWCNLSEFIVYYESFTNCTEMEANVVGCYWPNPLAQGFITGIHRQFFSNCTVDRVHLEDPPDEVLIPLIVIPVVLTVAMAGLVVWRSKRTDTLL

CC(C)C[C@H](NC(=O)[C@H](CCCNC(=N)N)NC(=O)CNC(=O)[C@H](CC(C)C)NC(=O)[C@@H](NC(=O)[C@@H]1CSSC[C@H](NC(=O)[C@H](C)N)C(=O)N[C@@H](CC(=O)O)C(=O)N[C@@H]([C@@H](C)O)C(=O)N[C@@H](C)C(=O)N[C@@H]([C@@H](C)O)C(=O)N1)C(C)C)C(=O)N[C@@H](CO)C(=O)N[C@@H](CCC(N)=O)C(=O)N[C@@H](CCC(=O)O)C(=O)N[C@@H](CC(C)C)C(=O)N[C@@H](Cc1c[nH]cn1)C(=O)N[C@@H](CCCNC(=N)N)C(=O)N[C@@H](CC(C)C)C(=O)N[C@@H](CCC(N)=O)C(=O)N[C@H](C(=O)N[C@@H](Cc1ccc(O)cc1)C(=O)N1CCC[C@H]1C(=O)N[C@@H](CCCNC(=N)N)C(=O)N[C@H](C(=O)N[C@@H](CC(N)=O)C(=O)N[C@H](C(=O)NCC(=O)N[C@@H](CO)C(=O)N[C@@H](CCCCN)C(=O)N[C@@H](C)C(=O)N[C@@H](Cc1ccccc1)C(N)=O)C(C)C)[C@@H](C)O)[C@@H](C)O [ACX017] (H-ACDTATCVLGRLSQELHRLQTYPRTNVGSKAF-NH2; disulfide 2-7)
appetite suppression (reduced food intake compared to Control group) [1]: suppressed appetite in the Test group for at least about four hours after dosing
activation of the adrenomedullin 2 (AM2) receptor [2]: did not activate the adrenomedullin 2 (AM2) receptor
